How the values were obtained:
[1] = test system: gamma amino butyric acid (GABA) metabolism; conditions: An, et al (2003); cited from earlier work
[2] = test system: superoxide dismutase (SOD); assay: Superoxide dismutase activity in serum and brain tissue of D-galactose-treated animals; format: in vivo, mice; conditions: serum, cortex and hippocampus; galactose-induced animals
Experimental: (§1) A total of nine groups with 6 each animal experiments were conducted. The animals in groups 1-9 were: 1: blank control group, 2: D-galactose (0.2 g/kg), 3: D-galactose (0.2 g/kg)+vitamin E (100 mg/kg), 4: D-galactose (0.2 g/kg)+TM1-2 low dose (5 mg/kg), 5: D-galactose (0.2 g kg)+TM1-2 mid-dose group (20 mg/kg), 6: D-galactose (0.2 g/kg)+TM1-2 high dose group (50 mg/kg), 7: D-galactose (0.2 g/kg)+T1-11 low dose group (1 mg/Kg), 8: D-galactose (0.2 g/kg)+T1-11 high dose group (10 mg/kg), 9: T1-11 (10 mg/kg). D-galactose was treated by subcutaneous injection (0.2 g/kg body weight), and G. elata extract TM1-2, T1-11 and vitamin E were orally administrated (oral gavage). The test substances were treated once a day, continuing for 6 weeks. When administering, in addition to the blank control group, each group was continued to treat with 0.2 g/kg (body weight) D-galactose subcutaneously injected via back neck, and the blank control group was subcutaneously injected with physiological saline. The vitamin E group was used as a positive control group. After observing their behavior, the animals are intraperitoneally injected with 50 mg/g 5-bromo-2′-deoxyuridine (BrdU) continuously for one week. Then the animals were sacrificed to take their brain tissue and blood. […]

[3] = test system: D-galactose-induced aging mice; assay: Nesting test and burrowing test in D-galactose-induced aging mice; format: in vivo; conditions: D-galactose 0.2 g/kg s.c.; test substance oral gavage once a day for 6 weeks
Experimental: as §1, with “saline.” for “saline. The vitamin E group was used as a positive control group. After observing their behavior, the animals are intraperitoneally injected with 50 mg/g 5-bromo-2′-deoxyuridine (BrdU) continuously for one week. Then the animals were sacrificed to take their brain tissue and blood.”
In the Nesting Test (Deacon R (2012), Deacon RM (2006)), mice were given nesting materials, and they made nests in the corners of the cage and stayed in the nest. By using the nature of mouse nesting, nest cotton swabs were given, the scores of completing nesting were calculated, and the weight of the remaining unbroken cotton was weighed to assess the degree of mouse aging (FIGS. 5A and 5B). […]

[4] = test system: lipid peroxidation (malondialdehyde, MDA); assay: Lipid peroxidation in serum and brain tissue of D-galactose-treated animals; format: in vivo, mice; conditions: serum, cortex and hippocampus; galactose-induced animals
Experimental: as §1

[5] = test system: glucose-6-phosphate dehydrogenase (G6PD); assay: Glucose-6-phosphate dehydrogenase in serum and brain tissue of D-galactose-treated animals; format: in vivo, mice; conditions: serum, cortex and hippocampus; galactose-induced animals
Experimental: as §1

[6] = test system: SH-SY5Y cells; assay: SA-β-gal staining of senescence SH-SY5Y cells; format: cell-based; conditions: senescence SH-SY5Y cells treated for 24 hours
Experimental: SH-SY5Y cells (purchased from Taiwan and Bioresource Collection and Research Center (BCRC), 08C0066) was cultured in DMEM containing 10% fetal bovine serum, 100 U/ml penicillin and 100 µg/ml streptomycin in a carbon dioxide incubator. When SH-SY5Y cells were grown in a 100 mm culture dish to a fullness of 80%, subculture was carried out. […] Thus, the intracellular amount of SA-β-gal in the test cells were used as an indicator of cell senescence. These senescence cells were then used to perform the following aging-related cell experiments.
The senescence SH-SY5Y cells in embodiment 3 were treated with the G. elata crude extract TM1, the G. elata extract TM1-2 and N^6-(4-hydroxybenzyl) adenosine (T1-11) for 24 hours, then fixed with 4% formaldehyde, following by staining with SA-β-gal to evaluate the cell senescence level. […] Furthermore, the mechanism of cell senescence is currently known to be driven by two independent pathways, p53-p21 pathway and p16-Rb pathway. Both p21 and p16 are cyclin-dependent kinase inhibitors (CDKI), which prevent Rb from being phosphorylated so as to inhibit Rb. Consequently, the activity of E2F transcription factors is inhibited and the cell cycle is therefore blocked. p53, p63 and p73 can directly induce the activation of p21 protein, leading to arrest in cell cycle and cellular senescence.

[7] = test system: BrdU and DCX-expressing cells in the hippocampus; assay: Neurogenesis markers BrdU and DCX in hippocampus of D-galactose-induced mice (immunostaining); format: in vivo
Experimental: as §1, with “saline.” for “saline. The vitamin E group was used as a positive control group. After observing their behavior, the animals are intraperitoneally injected with 50 mg/g 5-bromo-2′-deoxyuridine (BrdU) continuously for one week. Then the animals were sacrificed to take their brain tissue and blood.”
After observing the behavior, the animals of Example 6 are intraperitoneally injected with […] 5-bromo-2′-deoxyuridine (BrdU) continuously for a week. […] The sections were immunohistochemically stained by first reacting with the first antibody, doublecortin (DCX) (purchased from Abcam) and then with a fluorescence-labeled secondary antibody (purchased from Jackson Labs Technologies, Inc). […]

[8] = test system: glutathione peroxidase (GSH-Px); assay: Glutathione peroxidase in serum and brain tissue of D-galactose-treated animals; format: in vivo, mice; conditions: serum, cortex and hippocampus; galactose-induced animals
Experimental: as §1

[9] = test system: D-galactose-induced aging mice; assay: Morris water maze test in D-galactose-induced aging mice; format: in vivo; conditions: D-galactose 0.2 g/kg s.c.; test substance oral gavage once a day for 6 weeks
Experimental: A total of nine groups with 6 each animal experiments were conducted. The animals in groups 1-9 were: 1: blank control group, 2: D-galactose (0.2 g/kg), 3: D-galactose (0.2 g/kg)+vitamin E (100 mg/kg), 4: D-galactose (0.2 g/kg)+TM1-2 low dose (5 mg/kg), 5: D-galactose (0.2 g kg)+TM1-2 mid-dose group (20 mg/kg), 6: D-galactose (0.2 g/kg)+TM1-2 high dose group (50 mg/kg), 7: D-galactose (0.2 g/kg)+T1-11 low dose group (1 mg/Kg), 8: D-galactose (0.2 g/kg)+T1-11 high dose group (10 mg/kg), 9: T1-11 (10 mg/kg). D-galactose was treated by subcutaneous injection (0.2 g/kg body weight), and G. elata extract TM1-2, T1-11 and vitamin E were orally administrated (oral gavage). The test substances were treated once a day, continuing for 6 weeks. When administering, in addition to the blank control group, each group was continued to treat with 0.2 g/kg (body weight) D-galactose subcutaneously injected via back neck, and the blank control group was subcutaneously injected with physiological saline. The vitamin E group was used as a positive control group.
Furthermore, the memory learning ability of mice was evaluated using the Morris water maze test (Vorhees C V, et al. (2006)) (FIG. 7A and FIG. 7B).

[10] = test system: catalase (CAT); assay: Catalase activity in serum and brain tissue of D-galactose-treated animals; format: in vivo, mice; conditions: serum, cortex and hippocampus; galactose-induced animals
Experimental: as §1

[11] = test system: p53, p16, p21 protein expression; assay: Cellular senescence related molecules (p53, p16, p21) in SH-SY5Y cells; format: cell-based

| Compound | metabolism of GABA in gerbil hippocampus [1] | activity of superoxide dismutase (SOD) [2] | cognitive behavioral deficit: construction of nests and burrowing [3] | lipid peroxidation (malondialdehyde, MDA) [4] | level of glucose-6-phosphate dehydrogenase (G6PD) reduced by galactose [5] | intracellular SA-β-gal (cell senescence level) [6] | expression of BrdU in the hippocampus [7] | expression of DCX in the hippocampus [7] | level of glutathione peroxidation (GSH-Px) reduced by galactose [8] | cognitive behavioral deficit incl. memory learning ability; higher dose better improvement [9] | activity of catalase (CAT) [10] | p53, p16, p21 protein expression [11] |
| --- | --- | --- | --- | --- | --- | --- | --- | --- | --- | --- | --- | --- |
| OCc1ccc(O[C@@H]2O[C@H](CO)[C@@H](O)[C@H](O)[C@H]2O)cc1 [gastrodin] | alter the metabolism of gamma amino butyric acid (GABA) | – | – | – | – | – | – | – | – | – | – | – |
| OC[C@H]1O[C@@H](n2cnc3c(NCc4ccc(O)cc4)ncnc32)[C@H](O)[C@@H]1O [T1-11, N^6-(4-hydroxybenzyl) adenosine] | – | significantly repaired the reduced activity | effectively ameliorate the animal cognitive behavioral deficit | significantly repaired | effectively reversed | significantly reduce SA-β-gal | ameliorate the reduced expression | ameliorate the reduced expression | effectively reversed | ameliorate cognitive behavioral deficit | significantly repaired the reduced activity | inhibition of p53, p16, p21 protein expression |
